{"source": "ChEMBL document CHEMBL5441381", "about": "“ASAP - In vitro antiviral effect” (2024)", "key": {"SARS-CoV-2 [1]": {"test_system": "SARS-CoV-2", "test": "(§1) Functional immunofluorescence assay to measure dose dependent changes in antiviral-drug inhibitory efficacy against hCoV-19/USA-WA1/2020 in iPSC-Pneumocyte cells which are seeded prior to treatment, then infected with hCoV-19/USA-WA1/2020. Cells are fixed with 10 % formaldehyde, washed with PBS, permeabilized with permeabilization buffer, then washed with wash buffer. The cells are incubated with nucleoprotein primary antibody IC7C7. Following primary staining, cells are washed with wash buffer and incubated in a solution of with Alexa fluor 488 and DAPI. Infected and uninfected cells are visualized and analyzed by Gen5 software. The assay has been performed by Icahn School of Medicine at Mount Sinai.", "assay_type": "organism-based, Homo sapiens", "details": "for EC90: Baseline response 0 %, Maximum response 100 %"}, "SARS-CoV-2 [2]": {"test_system": "SARS-CoV-2", "test": "as §1, with “hCoV-19/USA-WA1/2020 in HeLa-ACE2 cells which” for “hCoV-19/USA-WA1/2020 in iPSC-Pneumocyte cells which”, “prior to drug treatment, then” for “prior to treatment, then”", "assay_type": "organism-based, Homo sapiens"}, "[3]": {"details": "Severe acute respiratory syndrome coronavirus 2, HeLa-ACE2"}}, "note": "Values joined by “and” are separate entries in the source; they are usually repeats but may differ in a detail not shown here. Equal values may be shown once.", "data": [{"smiles": "CC(C)[C@@H](Nc1ncnc2[nH]c(-c3cnn(C)c3C#N)cc12)c1ccc2c(c1)OCCO2", "values": [{"measurement": "EC90", "setting": "SARS-CoV-2 [1]; Severe acute respiratory syndrome coronavirus 2, Pneumocyte, Hill slope -15.978, Maximum measured 108.15 %, Minimum measured 1.229 %, R squared 0.666", "result": 16.2, "unit": "µM"}, {"measurement": "EC90", "setting": "SARS-CoV-2 [1]; Severe acute respiratory syndrome coronavirus 2, Pneumocyte, EC90 CI (lower) 0 uM, EC90 CI (upper) 0 uM, Hill slope -11.115, Maximum measured 116.315 %, Minimum measured 8.563 %, R squared 0.796", "result": 6.57, "unit": "µM"}, {"measurement": "EC50", "setting": "SARS-CoV-2 [1]; pneumocyte", "result": "14.1 µM and 5.39 µM"}, {"measurement": "EC90", "setting": "SARS-CoV-2 [2]; Baseline response 0 %, EC90 CI (lower) 0.491 uM, EC90 CI (upper) 1.004 uM, Hill slope -2.446, Maximum measured 109.522 %, Maximum response 100 %, Minimum measured 0 %, R squared 0.979", "result": 4.23, "unit": "µM"}, {"measurement": "EC50", "setting": "SARS-CoV-2 [2]; [3]", "result": 1.73, "unit": "µM"}, {"measurement": "EC90", "setting": "SARS-CoV-2 [2]; Severe acute respiratory syndrome coronavirus 2, HeLa-ACE2, Baseline response 0 %, EC90 CI (lower) 0.194 uM, EC90 CI (upper) 2.46 uM, Hill slope -2.403, Maximum measured 109.522 %, Maximum response 100 %, Minimum measured 3.811 %, R squared 0.7", "result": 4.31, "unit": "µM"}, {"measurement": "EC50", "setting": "SARS-CoV-2 [2]; hela-ace2", "result": 1.72, "unit": "µM"}]}, {"smiles": "CC(C)[C@@H](Nc1ncnc2[nH]cc(C(=O)NC3CC3)c12)c1ccc2c(c1)S(=O)(=O)CCC2", "values": [{"measurement": "EC50", "setting": "SARS-CoV-2 [2]; [3]", "result": 14.4, "unit": "µM"}, {"measurement": "EC90", "setting": "SARS-CoV-2 [2]; Severe acute respiratory syndrome coronavirus 2, HeLa-ACE2, Baseline response 0 %, Hill slope -1.207, Maximum measured 103.36 %, Maximum response 100 %, Minimum measured 37.723 %, R squared 0.64", "result": "> 20", "unit": "µM"}]}, {"smiles": "CC(C)[C@@H](Nc1ncnc2[nH]c(-c3ccc4nnn(C)c4c3)cc12)c1ccc2c(c1)S(=O)(=O)CCC2", "values": [{"measurement": "EC50", "setting": "SARS-CoV-2 [2]; [3]", "result": 3.64, "unit": "µM"}, {"measurement": "EC90", "setting": "SARS-CoV-2 [2]; Severe acute respiratory syndrome coronavirus 2, HeLa-ACE2, Baseline response 0 %, Hill slope -0.69, Maximum measured 110.665 %, Maximum response 100 %, Minimum measured 33.895 %, R squared 0.849", "result": "> 20", "unit": "µM"}]}, {"smiles": "CC(C)[C@@H](Nc1ncnc2[nH]c(-c3cnn(CCC(N)=O)c3)cc12)c1ccc2c(c1)OCCO2", "values": [{"measurement": "EC50", "setting": "SARS-CoV-2 [2]; [3]", "result": "> 20", "unit": "µM"}, {"measurement": "EC90", "setting": "SARS-CoV-2 [2]; Severe acute respiratory syndrome coronavirus 2, HeLa-ACE2, Maximum measured 112.19 %, Minimum measured 96.19 %", "result": "> 20", "unit": "µM"}, {"measurement": "EC90", "setting": "SARS-CoV-2 [2]; Severe acute respiratory syndrome coronavirus 2, HeLa-ACE2, Maximum measured 121.913 %, Minimum measured 97.771 %", "result": "> 20", "unit": "µM"}]}, {"smiles": "CC(C)[C@@H](Nc1ncnc2[nH]c(-c3ccc4cncn4c3)cc12)c1ccc2c(c1)S(=O)(=O)CCC2", "values": [{"measurement": "EC50", "setting": "SARS-CoV-2 [2]; [3]", "result": 7.12, "unit": "µM"}, {"measurement": "EC90", "setting": "SARS-CoV-2 [2]; Severe acute respiratory syndrome coronavirus 2, HeLa-ACE2, Baseline response 0 %, Hill slope -0.819, Maximum measured 92.609 %, Maximum response 100 %, Minimum measured 28.375 %, R squared 0.905", "result": "> 20", "unit": "µM"}]}, {"smiles": "CC(C)[C@@H](Nc1ncnc2[nH]c(-c3cncc(S(C)(=O)=O)c3)cc12)c1ccc2c(c1)S(=O)(=O)CCC2", "values": [{"measurement": "EC50", "setting": "SARS-CoV-2 [2]; [3]", "result": "> 20", "unit": "µM"}, {"measurement": "EC90", "setting": "SARS-CoV-2 [2]; Severe acute respiratory syndrome coronavirus 2, HeLa-ACE2, Maximum measured 119.816 %, Minimum measured 96.629 %", "result": "> 20", "unit": "µM"}]}, {"smiles": "CC(C)[C@@H](Nc1ncnc2[nH]c(-c3cnn(CC(N)=O)c3)cc12)c1ccc2c(c1)S(=O)(=O)CCC2", "values": [{"measurement": "EC50", "setting": "SARS-CoV-2 [2]; [3]", "result": "> 20", "unit": "µM"}, {"measurement": "EC90", "setting": "SARS-CoV-2 [2]; Severe acute respiratory syndrome coronavirus 2, HeLa-ACE2, Maximum measured 127.59 %, Minimum measured 107.301 %", "result": "> 20", "unit": "µM"}]}, {"smiles": "CNC(=O)c1cc2c(N[C@@H](c3ccc4c(c3)S(=O)(=O)CCC4)C(C)C)ncnc2[nH]1", "values": [{"measurement": "EC50", "setting": "SARS-CoV-2 [2]; [3]", "result": "> 20", "unit": "µM"}, {"measurement": "EC90", "setting": "SARS-CoV-2 [2]; Severe acute respiratory syndrome coronavirus 2, HeLa-ACE2, Maximum measured 104.869 %, Minimum measured 90.681 %", "result": "> 20", "unit": "µM"}]}, {"smiles": "CNC(=O)c1cccc(-c2cc3c(N[C@H](c4ccc5c(c4)S(=O)(=O)CCC5)C(C)C)ncnc3[nH]2)c1", "values": [{"measurement": "EC50", "setting": "SARS-CoV-2 [2]; [3]", "result": "> 20", "unit": "µM"}, {"measurement": "EC90", "setting": "SARS-CoV-2 [2]; Severe acute respiratory syndrome coronavirus 2, HeLa-ACE2, Baseline response 0 %, Hill slope -6.666, Maximum measured 112.086 %, Maximum response 100 %, Minimum measured 84.591 %, R squared 0.065", "result": "> 20", "unit": "µM"}]}, {"smiles": "CC(C)[C@@H](Nc1ncnc2[nH]c(-c3cnn(CC(=O)N(C)C)c3)cc12)c1ccc2c(c1)OCCO2", "values": [{"measurement": "EC50", "setting": "SARS-CoV-2 [2]; [3]", "result": "> 20", "unit": "µM"}, {"measurement": "EC90", "setting": "SARS-CoV-2 [2]; Severe acute respiratory syndrome coronavirus 2, HeLa-ACE2, Baseline response 0 %, Hill slope -0.679, Maximum measured 102.904 %, Maximum response 100 %, Minimum measured 72.697 %, R squared 0.733", "result": "> 20", "unit": "µM"}, {"measurement": "EC90", "setting": "SARS-CoV-2 [2]; Severe acute respiratory syndrome coronavirus 2, HeLa-ACE2, Baseline response 0 %, Hill slope -5.712, Maximum measured 120.313 %, Maximum response 100 %, Minimum measured 86.961 %, R squared 0.099", "result": "> 20", "unit": "µM"}]}, {"smiles": "CC(C)[C@@H](Nc1ncnc2[nH]c(-c3cnn(CC(=O)N(C)C)c3)cc12)c1ccc2c(c1)S(=O)(=O)CCC2", "values": [{"measurement": "EC50", "setting": "SARS-CoV-2 [2]; [3]", "result": "> 20", "unit": "µM"}, {"measurement": "EC90", "setting": "SARS-CoV-2 [2]; Severe acute respiratory syndrome coronavirus 2, HeLa-ACE2, Baseline response 0 %, Hill slope -0.117, Maximum measured 98.615 %, Maximum response 100 %, Minimum measured 84.991 %, R squared 0.091", "result": "> 20", "unit": "µM"}]}, {"smiles": "CC(C)[C@@H](Nc1ncnc2[nH]c(-c3cnn(C)c3C#N)cc12)c1ccc2c(n1)NC(=O)CO2", "values": [{"measurement": "EC50", "setting": "SARS-CoV-2 [2]; [3]", "result": 2.46, "unit": "µM"}, {"measurement": "EC90", "setting": "SARS-CoV-2 [2]; Severe acute respiratory syndrome coronavirus 2, HeLa-ACE2, Baseline response 0 %, EC90 CI (lower) 0.524 uM, EC90 CI (upper) 2.251 uM, Hill slope -2.687, Maximum measured 122.922 %, Maximum response 100 %, Minimum measured 8.802 %, R squared 0.907", "result": 5.57, "unit": "µM"}]}, {"smiles": "Cn1ncc(-c2cc3c(N[C@@H](c4ccc5c(c4)OCCO5)C(C)(C)C)ncnc3[nH]2)c1C#N", "values": [{"measurement": "EC50", "setting": "SARS-CoV-2 [1]; Severe acute respiratory syndrome coronavirus 2, Pneumocyte", "result": 7.67, "unit": "µM"}, {"measurement": "EC90", "setting": "SARS-CoV-2 [1]; Severe acute respiratory syndrome coronavirus 2, Pneumocyte, EC90 CI (lower) 1.944 uM, EC90 CI (upper) 9.946 uM, Hill slope -3.954, Maximum measured 131.986 %, Minimum measured 2.165 %, R squared 0.772", "result": 13.4, "unit": "µM"}, {"measurement": "EC90", "setting": "SARS-CoV-2 [2]; Baseline response 0 %, EC90 CI (lower) 0.293 uM, EC90 CI (upper) 0.492 uM, Hill slope -2.031, Maximum measured 93.387 %, Maximum response 100 %, Minimum measured 1.413 %, R squared 0.981", "result": 3.3, "unit": "µM"}, {"measurement": "EC50", "setting": "SARS-CoV-2 [2]; [3]", "result": 1.05, "unit": "µM"}, {"measurement": "EC90", "setting": "SARS-CoV-2 [2]; Severe acute respiratory syndrome coronavirus 2, HeLa-ACE2, Baseline response 0 %, EC90 CI (lower) 0.423 uM, EC90 CI (upper) 0.632 uM, Hill slope -3.108, Maximum measured 91.316 %, Maximum response 100 %, Minimum measured 1.9 %, R squared 0.978", "result": 2.12, "unit": "µM"}, {"measurement": "EC50", "setting": "SARS-CoV-2 [2]; hela-ace2", "result": 1.12, "unit": "µM"}]}, {"smiles": "CCNC(=O)c1cc2c(N[C@H](c3ccc4c(c3)OCCO4)C(C)C)ncnc2[nH]1", "values": [{"measurement": "EC50", "setting": "SARS-CoV-2 [2]; [3]", "result": 19.7, "unit": "µM"}, {"measurement": "EC90", "setting": "SARS-CoV-2 [2]; Severe acute respiratory syndrome coronavirus 2, HeLa-ACE2, Baseline response 0 %, Hill slope -1.464, Maximum measured 109.949 %, Maximum response 100 %, Minimum measured 49.504 %, R squared 0.869", "result": "> 20", "unit": "µM"}]}]}
